Results on 9 compounds are retold here after article PMC6330093 (Bioconjugate chemistry, 2017).

Molecules are shown by their SMILES. Read-outs that look alike come from different tables or passages of the source.

One series concerns the target proteinase K (Parengyodontium album, UniProt P06873). The series can be described thus: HPLC-based proteolysis assay with proteinase K. It counts as in vitro ADME.
For series [1] the following is noted: variable temperature CD, 20 mM sodium phosphate buffer, pH 7.

Chain of proteinase K (P06873 106-384, species assumed): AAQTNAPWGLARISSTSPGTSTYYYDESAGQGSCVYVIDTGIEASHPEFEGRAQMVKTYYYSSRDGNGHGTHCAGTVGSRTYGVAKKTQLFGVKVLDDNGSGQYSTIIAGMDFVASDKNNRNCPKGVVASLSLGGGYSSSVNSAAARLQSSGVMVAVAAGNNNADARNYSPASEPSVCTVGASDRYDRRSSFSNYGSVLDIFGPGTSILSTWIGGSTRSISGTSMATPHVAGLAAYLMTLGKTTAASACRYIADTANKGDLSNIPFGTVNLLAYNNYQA

With `CC[C@H](C)[C@H](NC(=O)[C@H](Cc1c[nH]cn1)NC(=O)[C@H](CC(N)=O)NC(=O)[C@H](Cc1ccccc1)NC(=O)[C@H](Cc1ccc(O)cc1)NC(=O)[C@H](Cc1ccc(O)cc1)NC(=O)[C@@H](NC(=O)[C@H](CCCNC(=N)N)NC(=O)CNC(=O)[C@H](CO)NC(=O)[C@H](CCC(N)=O)NC(=O)[C@H](CCCNC(=N)N)NC(=O)[C@H](CO)NC(=O)[C@H](CCSC)NC(=O)[C@H](CCCNC(=N)N)NC(=O)[C@H](CCCCN)NC(=O)[C@H](CCC(=O)O)NC(=O)[C@H](Cc1c[nH]c2ccccc12)NC(=O)CNC(=O)[C@@H]1CCCN1C(=O)[C@@H]1CCCN1C(=O)[C@H](CC(C)C)NC(=O)[C@@H](N)CCCCN)C(C)C)C(=O)N[C@H](C(=O)N[C@@H](CC(N)=O)C(=O)N[C@@H](C)C(=O)N[C@@H](CO)C(=O)N[C@@H](CCC(N)=O)C(=O)N[C@@H](Cc1ccccc1)C(=O)N[C@@H](CCC(=O)O)C(=O)N[C@@H](CCCNC(=N)N)C(=O)N1CCC[C@H]1C(=O)N[C@@H](CO)C(=O)NCC(=O)O)[C@@H](C)O` [18Q], at proteinase K, the “k, apparent proteolysis rate constant” value worked out at 7.8 ±0.4 s^−1 × 10^3. The “Tm (melting temperature)” value in series [1] (50 μM protein) is 58.5 ±0.2 °C. Turning to `CC[C@H](C)[C@H](NC(=O)[C@H](Cc1c[nH]cn1)NC(=O)[C@H](CC(N)=O)NC(=O)[C@H](Cc1ccccc1)NC(=O)[C@H](Cc1ccc(O)cc1)NC(=O)[C@H](Cc1ccc(O)cc1)NC(=O)[C@@H](NC(=O)[C@H](CCCNC(=N)N)NC(=O)CNC(=O)[C@H](CO)NC(=O)[C@H](CO)NC(=O)[C@H](CCCNC(=N)N)NC(=O)[C@H](CC(N)=O)NC(=O)[C@H](CCSC)NC(=O)[C@H](CCCNC(=N)N)NC(=O)[C@H](CCCCN)NC(=O)[C@H](CCC(=O)O)NC(=O)[C@H](Cc1c[nH]c2ccccc12)NC(=O)CNC(=O)[C@@H]1CCCN1C(=O)[C@@H]1CCCN1C(=O)[C@H](CC(C)C)NC(=O)[C@@H](N)CCCCN)C(C)C)C(=O)N[C@H](C(=O)N[C@@H](CC(N)=O)C(=O)N[C@@H](C)C(=O)N[C@@H](CO)C(=O)N[C@@H](CCC(N)=O)C(=O)N[C@@H](Cc1ccccc1)C(=O)N[C@@H](CCC(=O)O)C(=O)N[C@@H](CCCNC(=N)N)C(=O)N1CCC[C@H]1C(=O)N[C@@H](CO)C(=O)NCC(=O)O)[C@@H](C)O` [16N], the “Tm (melting temperature)” value in series [1] (100 μM protein) is 50.6 ±0.2 °C.

Regarding `CC[C@H](C)[C@H](NC(=O)[C@H](Cc1c[nH]cn1)NC(=O)[C@H](CC(N)=O)NC(=O)[C@H](Cc1ccccc1)NC(=O)[C@H](Cc1ccc(O)cc1)NC(=O)[C@H](Cc1ccc(O)cc1)NC(=O)[C@@H](NC(=O)[C@H](CCCNC(=N)N)NC(=O)CNC(=O)[C@H](CO)NC(=O)[C@H](CO)NC(=O)[C@H](CCCNC(=N)N)NC(=O)[C@H](CO)NC(=O)[C@H](CCSC)NC(=O)[C@H](CCCNC(=N)N)NC(=O)[C@H](CCCCN)NC(=O)[C@H](CCC(=O)O)NC(=O)[C@H](Cc1c[nH]c2ccccc12)NC(=O)CNC(=O)[C@@H]1CCCN1C(=O)[C@@H]1CCCN1C(=O)[C@H](CC(C)C)NC(=O)[C@@H](N)CCCCN)C(C)C)C(=O)N[C@@H](CCC(N)=O)C(=O)N[C@@H](CC(N)=O)C(=O)N[C@@H](C)C(=O)N[C@@H](CO)C(=O)N[C@@H](CCC(N)=O)C(=O)N[C@@H](Cc1ccccc1)C(=O)N[C@@H](CCC(=O)O)C(=O)N[C@@H](CCCNC(=N)N)C(=O)N1CCC[C@H]1C(=O)N[C@@H](CO)C(=O)NCC(=O)O` [29Q], the “k, apparent proteolysis rate constant” value at proteinase K is listed as 47.2 ±2.6 s^−1 × 10^3. Further, in series [1] (50 μM protein), the “Tm (melting temperature)” value amounted to 45.3 ±0.5 °C. Regarding `CC[C@H](C)[C@H](NC(=O)[C@H](CC(N)=O)NC(=O)[C@H](CC(N)=O)NC(=O)[C@H](Cc1ccccc1)NC(=O)[C@H](Cc1ccc(O)cc1)NC(=O)[C@H](Cc1ccc(O)cc1)NC(=O)[C@@H](NC(=O)[C@H](CCCNC(=N)N)NC(=O)CNC(=O)[C@H](CO)NC(=O)[C@H](CO)NC(=O)[C@H](CCCNC(=N)N)NC(=O)[C@H](CO)NC(=O)[C@H](CCSC)NC(=O)[C@H](CCCNC(=N)N)NC(=O)[C@H](CCCCN)NC(=O)[C@H](CCC(=O)O)NC(=O)[C@H](Cc1c[nH]c2ccccc12)NC(=O)CNC(=O)[C@@H]1CCCN1C(=O)[C@@H]1CCCN1C(=O)[C@H](CC(C)C)NC(=O)[C@@H](N)CCCCN)C(C)C)C(=O)N[C@H](C(=O)N[C@@H](CC(N)=O)C(=O)N[C@@H](C)C(=O)N[C@@H](CO)C(=O)N[C@@H](CCC(N)=O)C(=O)N[C@@H](Cc1ccccc1)C(=O)N[C@@H](CCC(=O)O)C(=O)N[C@@H](CCCNC(=N)N)C(=O)N1CCC[C@H]1C(=O)N[C@@H](CO)C(=O)NCC(=O)O)[C@@H](C)O` [27N], the “Tm (melting temperature)” value in series [1] (50 μM protein) is 54.9 ±0.1 °C. Regarding `CC[C@H](C)[C@H](NC(=O)[C@H](Cc1c[nH]cn1)NC(=O)[C@H](CC(N)=O)NC(=O)[C@H](Cc1ccccc1)NC(=O)[C@H](Cc1ccc(O)cc1)NC(=O)[C@H](Cc1ccc(O)cc1)NC(=O)[C@@H](NC(=O)[C@H](CCCNC(=N)N)NC(=O)CNC(=O)[C@H](CO)NC(=O)[C@H](CO)NC(=O)[C@H](CCCNC(=N)N)NC(=O)[C@H](CCC(N)=O)NC(=O)[C@H](CCSC)NC(=O)[C@H](CCCNC(=N)N)NC(=O)[C@H](CCCCN)NC(=O)[C@H](CCC(=O)O)NC(=O)[C@H](Cc1c[nH]c2ccccc12)NC(=O)CNC(=O)[C@@H]1CCCN1C(=O)[C@@H]1CCCN1C(=O)[C@H](CC(C)C)NC(=O)[C@@H](N)CCCCN)C(C)C)C(=O)N[C@H](C(=O)N[C@@H](CC(N)=O)C(=O)N[C@@H](C)C(=O)N[C@@H](CO)C(=O)N[C@@H](CCC(N)=O)C(=O)N[C@@H](Cc1ccccc1)C(=O)N[C@@H](CCC(=O)O)C(=O)N[C@@H](CCCNC(=N)N)C(=O)N1CCC[C@H]1C(=O)N[C@@H](CO)C(=O)NCC(=O)O)[C@@H](C)O` [16Q], at proteinase K, the “k, apparent proteolysis rate constant” value is given as 8.9 ±0.2 s^−1 × 10^3. Moreover, in series [1] (50 μM protein), the “Tm (melting temperature)” value is 56.6 ±0.1 °C. For `CC[C@H](C)[C@H](NC(=O)[C@H](Cc1c[nH]cn1)NC(=O)[C@H](CC(N)=O)NC(=O)[C@H](Cc1ccccc1)NC(=O)[C@H](Cc1ccc(O)cc1)NC(=O)[C@H](Cc1ccc(O)cc1)NC(=O)[C@@H](NC(=O)[C@H](CCCNC(=N)N)NC(=O)CNC(=O)[C@H](CO)NC(=O)[C@H](CO)NC(=O)[C@H](CCCNC(=N)N)NC(=O)[C@H](CO)NC(=O)[C@H](CCSC)NC(=O)[C@H](CCCNC(=N)N)NC(=O)[C@H](CCCCN)NC(=O)[C@H](CCC(=O)O)NC(=O)[C@H](Cc1c[nH]c2ccccc12)NC(=O)CNC(=O)[C@@H]1CCCN1C(=O)[C@@H]1CCCN1C(=O)[C@H](CC(C)C)NC(=O)[C@@H](N)CCCCN)C(C)C)C(=O)N[C@@H](CC(N)=O)C(=O)N[C@@H](CC(N)=O)C(=O)N[C@@H](C)C(=O)N[C@@H](CO)C(=O)N[C@@H](CCC(N)=O)C(=O)N[C@@H](Cc1ccccc1)C(=O)N[C@@H](CCC(=O)O)C(=O)N[C@@H](CCCNC(=N)N)C(=O)N1CCC[C@H]1C(=O)N[C@@H](CO)C(=O)NCC(=O)O` [29N], the “Tm (melting temperature)” value in series [1] (50 μM protein) was determined as 50.0 ±0.1 °C. Consider `CC[C@H](C)[C@H](NC(=O)[C@H](Cc1c[nH]cn1)NC(=O)[C@H](CC(N)=O)NC(=O)[C@H](Cc1ccccc1)NC(=O)[C@H](Cc1ccc(O)cc1)NC(=O)[C@H](Cc1ccc(O)cc1)NC(=O)[C@@H](NC(=O)[C@H](CCCNC(=N)N)NC(=O)CNC(=O)[C@H](CO)NC(=O)[C@H](CC(N)=O)NC(=O)[C@H](CCCNC(=N)N)NC(=O)[C@H](CO)NC(=O)[C@H](CCSC)NC(=O)[C@H](CCCNC(=N)N)NC(=O)[C@H](CCCCN)NC(=O)[C@H](CCC(=O)O)NC(=O)[C@H](Cc1c[nH]c2ccccc12)NC(=O)CNC(=O)[C@@H]1CCCN1C(=O)[C@@H]1CCCN1C(=O)[C@H](CC(C)C)NC(=O)[C@@H](N)CCCCN)C(C)C)C(=O)N[C@H](C(=O)N[C@@H](CC(N)=O)C(=O)N[C@@H](C)C(=O)N[C@@H](CO)C(=O)N[C@@H](CCC(N)=O)C(=O)N[C@@H](Cc1ccccc1)C(=O)N[C@@H](CCC(=O)O)C(=O)N[C@@H](CCCNC(=N)N)C(=O)N1CCC[C@H]1C(=O)N[C@@H](CO)C(=O)NCC(=O)O)[C@@H](C)O` [18N], for which, in series [1] (100 μM protein), the “Tm (melting temperature)” value is 57.5 ±0.1 °C. For `CC[C@H](C)[C@H](NC(=O)[C@H](Cc1c[nH]cn1)NC(=O)[C@H](CC(N)=O)NC(=O)[C@H](Cc1ccccc1)NC(=O)[C@H](Cc1ccc(O)cc1)NC(=O)[C@H](Cc1ccc(O)cc1)NC(=O)[C@@H](NC(=O)[C@H](CCCNC(=N)N)NC(=O)CNC(=O)[C@H](CO)NC(=O)[C@H](CO)NC(=O)[C@H](CCCNC(=N)N)NC(=O)[C@H](CO)NC(=O)[C@H](CCSC)NC(=O)[C@H](CCCNC(=N)N)NC(=O)[C@H](CCCCN)NC(=O)[C@H](CCC(=O)O)NC(=O)[C@H](Cc1c[nH]c2ccccc12)NC(=O)CNC(=O)[C@@H]1CCCN1C(=O)[C@@H]1CCCN1C(=O)[C@H](CC(C)C)NC(=O)[C@@H](N)CCCCN)C(C)C)C(=O)N[C@H](C(=O)N[C@@H](CC(N)=O)C(=O)N[C@@H](C)C(=O)N[C@@H](CC(N)=O)C(=O)N[C@@H](CCC(N)=O)C(=O)N[C@@H](Cc1ccccc1)C(=O)N[C@@H](CCC(=O)O)C(=O)N[C@@H](CCCNC(=N)N)C(=O)N1CCC[C@H]1C(=O)N[C@@H](CO)C(=O)NCC(=O)O)[C@@H](C)O` [32N], in series [1] (100 μM protein), the “Tm (melting temperature)” value was 45.1 ±0.2 °C.

In the case of `CC[C@H](C)[C@H](NC(=O)[C@H](Cc1c[nH]cn1)NC(=O)[C@H](CC(N)=O)NC(=O)[C@H](Cc1ccccc1)NC(=O)[C@H](Cc1ccc(O)cc1)NC(=O)[C@H](CC(N)=O)NC(=O)[C@@H](NC(=O)[C@H](CCCNC(=N)N)NC(=O)CNC(=O)[C@H](CO)NC(=O)[C@H](CO)NC(=O)[C@H](CCCNC(=N)N)NC(=O)[C@H](CO)NC(=O)[C@H](CCSC)NC(=O)[C@H](CCCNC(=N)N)NC(=O)[C@H](CCCCN)NC(=O)[C@H](CCC(=O)O)NC(=O)[C@H](Cc1c[nH]c2ccccc12)NC(=O)CNC(=O)[C@@H]1CCCN1C(=O)[C@@H]1CCCN1C(=O)[C@H](CC(C)C)NC(=O)[C@@H](N)CCCCN)C(C)C)C(=O)N[C@H](C(=O)N[C@@H](CC(N)=O)C(=O)N[C@@H](C)C(=O)N[C@@H](CO)C(=O)N[C@@H](CCC(N)=O)C(=O)N[C@@H](Cc1ccccc1)C(=O)N[C@@H](CCC(=O)O)C(=O)N[C@@H](CCCNC(=N)N)C(=O)N1CCC[C@H]1C(=O)N[C@@H](CO)C(=O)NCC(=O)O)[C@@H](C)O` [23N], in series [1] (50 μM protein), the “Tm (melting temperature)” value was determined as 27.7 ±0.3 °C.
